Some test systems named below: A498 renal; EKVX NSCLC; HL-60(TB) leukemia; MDA-MB-435; NCI-H460 lung; RXF 393 renal; SK-OV-3 ovarian; SR leukemia; UACC-62 melanoma; UO-31 renal.
Common to all, as to assay: growth of human tumour cells (NCI), 48 h

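How tested: cells in 96-well plates exposed to compound for 48 hours at five concentrations. GI50: concentration for 50% inhibition of growth. At the TGI there is no net growth.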 Bounds are passed on as bounds.

Regarding `ClCc1cccc(Cn2cnc3c(NC45CC6CC(CC(C6)C4)C5)ncnc32)c1`, the GI50 was 15.4 µM in the assay with A498 renal; 18.6 µM with EKVX NSCLC; 1.24 µM with HL-60(TB) leukemia; 13.4 µM with MDA-MB-435; 16 µM in the assay on NCI-H460 lung; 11.4 µM in the assay with RXF 393 renal. For the same compound, the GI50 is 21.1 µM in the assay on SK-OV-3 ovarian, 16.3 µM with UACC-62 melanoma and 14.5 µM in the assay on UO-31 renal. The TGI amounted to 31.7 µM with A498 renal; 40.7 µM with EKVX NSCLC; 26.6 µM with HL-60(TB) leukemia; 29.8 µM in the assay with MDA-MB-435; 43 µM in the assay on NCI-H460 lung; 36.7 µM in the assay on RXF 393 renal. For the same compound, the TGI in the assay on SK-OV-3 ovarian was found to be 42.3 µM; in the assay with SR leukemia, 18.9 µM; in the assay on UACC-62 melanoma it was 36.5 µM; with UO-31 renal it was 31.4 µM.
Consider `Cc1ccccc1NC(=O)N/C(N)=N/c1nc(-c2cccc([N+](=O)[O-])c2)cs1`, for which the GI50 in the assay on A498 renal was 2.39 µM; in the assay with EKVX NSCLC, 1.94 µM; in the assay on HL-60(TB) leukemia it was 3.56 µM; in the assay with MDA-MB-435, 0.505 µM; with NCI-H460 lung it was 3.18 µM; with RXF 393 renal, 1.78 µM. For the same compound, the GI50 with SK-OV-3 ovarian was 2.55 µM; with SR leukemia, 0.594 µM; in the assay on UACC-62 melanoma, 2.14 µM; in the assay on UO-31 renal, 1.29 µM. Moreover, the TGI was 7.69 µM in the assay with A498 renal; above 100 µM in the assay with EKVX NSCLC; above 100 µM with HL-60(TB) leukemia; 4.51 µM with MDA-MB-435; 23.1 µM in the assay on NCI-H460 lung; 4.33 µM with RXF 393 renal. The TGI was 17.8 µM in the assay on SK-OV-3 ovarian, above 100 µM with SR leukemia, 12.8 µM with UACC-62 melanoma and 3.83 µM with UO-31 renal.
With `CCN(CC)CC(O)CNc1ccc(NCC2CO2)c2c1C(=O)c1ccccc1C2=O` (stereo not drawn), the TGI in the assay with A498 renal was 11.6 µM; in the assay on EKVX NSCLC, 4.72 µM; in the assay with MDA-MB-435, 0.394 µM; in the assay with NCI-H460 lung, 3.16 µM; in the assay with RXF 393 renal it was 0.953 µM; with SK-OV-3 ovarian, 9.64 µM. The TGI in the assay on UACC-62 melanoma was determined as 2.3 µM; in the assay on UO-31 renal it was 3.35 µM. The GI50 in the assay with HL-60(TB) leukemia is 0.00216 µM; with MDA-MB-435, 0.133 µM; in the assay with NCI-H460 lung it was 0.39 µM; with SR leukemia it was 0.0346 µM; in the assay with UACC-62 melanoma, 0.426 µM; in the assay on UO-31 renal it was 0.391 µM.
Take `NOCC(=O)O`: the GI50 with A498 renal is above 100 µM; in the assay with EKVX NSCLC, above 100 µM; in the assay on HL-60(TB) leukemia, 32.2 µM; with MDA-MB-435, above 100 µM; in the assay with NCI-H460 lung, above 100 µM; with RXF 393 renal it was above 100 µM. Moreover, the GI50 with SK-OV-3 ovarian was above 100 µM; in the assay with SR leukemia, above 100 µM; with UACC-62 melanoma, 34.4 µM; in the assay with UO-31 renal, above 100 µM. For the same compound, the TGI with A498 renal, with EKVX NSCLC, in the assay with HL-60(TB) leukemia, with MDA-MB-435, with NCI-H460 lung and in the assay with RXF 393 renal was above 100 µM each time. Besides, the TGI in the assay on SK-OV-3 ovarian, in the assay on SR leukemia, with UACC-62 melanoma and in the assay on UO-31 renal was above 100 µM in each case.
With `O=C1Nc2ccc(C(=O)c3ccco3)cc2/C1=C/c1cc(Cl)c(O)c(Cl)c1`, the GI50 was 3.69 µM with A498 renal; 11 µM in the assay on EKVX NSCLC; 6.93 µM with HL-60(TB) leukemia; 4.11 µM in the assay with MDA-MB-435; 4.23 µM in the assay with NCI-H460 lung; 2.77 µM with RXF 393 renal. Further, the GI50 in the assay with SK-OV-3 ovarian is 4.51 µM; in the assay on SR leukemia, 3.03 µM; in the assay on UACC-62 melanoma it was 2.63 µM; with UO-31 renal, 4.56 µM. In addition, the TGI with A498 renal is 9.72 µM; in the assay on EKVX NSCLC, above 25 µM; with HL-60(TB) leukemia it was above 21.1 µM; in the assay on MDA-MB-435 it was 24.2 µM; in the assay with NCI-H460 lung, above 22.8 µM; in the assay on RXF 393 renal, 15.5 µM. Moreover, the TGI in the assay with SK-OV-3 ovarian was found to be 16.1 µM; in the assay on SR leukemia, 18.8 µM; in the assay with UACC-62 melanoma it was 7.91 µM; in the assay with UO-31 renal, 11.5 µM.
Take `Cc1cc(I)cc(CN(C)CCCN2CCSCC2)c1O`: the GI50 in the assay on A498 renal is 26.4 µM; in the assay with EKVX NSCLC, 29.4 µM; with HL-60(TB) leukemia it was 18.8 µM; in the assay on MDA-MB-435, 23.2 µM; in the assay with NCI-H460 lung, 17.8 µM; in the assay on RXF 393 renal it was 17.2 µM. For the same compound, the GI50 in the assay with SK-OV-3 ovarian is 35.4 µM; in the assay on SR leukemia it was 10.6 µM; with UACC-62 melanoma, 32 µM; in the assay with UO-31 renal, 26.4 µM. Also, the TGI is 51.3 µM in the assay on A498 renal; above 100 µM in the assay with EKVX NSCLC; 36.6 µM in the assay on HL-60(TB) leukemia; 57.5 µM in the assay on MDA-MB-435; 40.2 µM in the assay with NCI-H460 lung; 39 µM with RXF 393 renal. The TGI was above 100 µM with SK-OV-3 ovarian, 25.3 µM with SR leukemia, above 100 µM with UACC-62 melanoma and above 100 µM in the assay with UO-31 renal.
Take `CCOC(=O)Nc1nc2ccc(Cn3cccc3)cc2[nH]1`: the TGI was 41.6 µM in the assay with A498 renal; above 100 µM in the assay on EKVX NSCLC; 13.4 µM in the assay on HL-60(TB) leukemia; 0.731 µM in the assay with MDA-MB-435; above 100 µM with NCI-H460 lung; above 22.3 µM with RXF 393 renal. The TGI with SK-OV-3 ovarian is above 100 µM; in the assay on SR leukemia it was above 36.2 µM; in the assay with UACC-62 melanoma, above 100 µM; in the assay on UO-31 renal it was above 100 µM.
For the compound `CC1=C2[C@@H](CC1)[C@]1(C)O[C@@](C3CCCCC3)(C[C@H]1OC(=O)CO)[C@H]2OC(=O)/C=C/c1ccccc1`, the GI50 with A498 renal is 0.0208 µM; with EKVX NSCLC, 5.83 µM; with HL-60(TB) leukemia it was 6.48 µM; in the assay on MDA-MB-435 it was 8.65 µM; with NCI-H460 lung, 6.35 µM; in the assay on RXF 393 renal it was 0.029 µM. Further, the GI50 in the assay with SK-OV-3 ovarian was 9.71 µM; in the assay on SR leukemia, 4.6 µM; with UACC-62 melanoma, 9.82 µM; in the assay on UO-31 renal, 0.359 µM. Besides, the TGI in the assay on A498 renal is 0.0731 µM; in the assay on EKVX NSCLC it was 19.5 µM; with HL-60(TB) leukemia, 18.3 µM; in the assay with MDA-MB-435, 23.6 µM; in the assay on NCI-H460 lung, 17.8 µM; in the assay with RXF 393 renal it was 0.483 µM. Moreover, the TGI in the assay on SK-OV-3 ovarian was determined as 24.5 µM; in the assay on SR leukemia, 17.9 µM; in the assay with UACC-62 melanoma, 25.8 µM; with UO-31 renal, 14.9 µM.

The record behind these values is PubChem BioAssay (NCI).
